In patent US20150225369A1, “DDR2 INHIBITORS FOR THE TREATMENT OF OSTEOARTHRITIS” (Merck Patent GmbH, priority 2012, published 2015):

biological target: T1, HEK293 transfected with human DDR2 (Homo sapiens, UniProt Q16832); experiment: Phospho-DDR2 cellular assay (collagen II induced DDR2 phosphorylation, ELISA); type: cell-based; details: HEK293 transfected with human DDR2, 50 μg/ml chicken collagen II, 16 h; read-out: IC50 [p-DDR2]
T1 construct: expressed in transfected cells; host or cells: HEK293 (PLT460F_(DDR2)-P7-1)
T1 sequence (Q16832 22-855): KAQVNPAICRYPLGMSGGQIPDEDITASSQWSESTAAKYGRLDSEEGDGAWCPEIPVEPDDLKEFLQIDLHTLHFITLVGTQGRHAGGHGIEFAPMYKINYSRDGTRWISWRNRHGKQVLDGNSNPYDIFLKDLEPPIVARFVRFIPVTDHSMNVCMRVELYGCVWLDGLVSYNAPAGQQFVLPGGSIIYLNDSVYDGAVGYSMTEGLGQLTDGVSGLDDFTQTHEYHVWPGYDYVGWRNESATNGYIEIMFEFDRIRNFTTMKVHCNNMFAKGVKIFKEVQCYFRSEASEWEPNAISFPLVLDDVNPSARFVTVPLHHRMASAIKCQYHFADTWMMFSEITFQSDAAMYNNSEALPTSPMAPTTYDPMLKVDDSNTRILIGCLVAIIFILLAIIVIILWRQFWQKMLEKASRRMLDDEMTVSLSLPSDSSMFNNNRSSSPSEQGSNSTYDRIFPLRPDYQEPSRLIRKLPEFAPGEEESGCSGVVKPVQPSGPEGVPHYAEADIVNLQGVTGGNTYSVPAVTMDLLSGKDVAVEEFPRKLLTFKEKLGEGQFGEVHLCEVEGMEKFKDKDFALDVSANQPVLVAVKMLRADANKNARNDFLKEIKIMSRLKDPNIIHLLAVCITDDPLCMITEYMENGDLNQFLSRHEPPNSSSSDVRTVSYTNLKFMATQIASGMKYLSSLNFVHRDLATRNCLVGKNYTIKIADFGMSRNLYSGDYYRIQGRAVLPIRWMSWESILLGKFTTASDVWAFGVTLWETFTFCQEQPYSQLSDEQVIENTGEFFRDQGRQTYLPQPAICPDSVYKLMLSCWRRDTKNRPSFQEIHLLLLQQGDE
Experimental: Assays were performed in a 384 well plate format, using cell line HEK293 transfected with human DDR2 (PLT460F_(DDR2)-P7-1)
Cells were seeded at a density of 10'000 cells/well in 384well poly-D-lysine coated Black/clear plate (Cellcoat Greiner) and incubated in DMEM medium in the presence of 10% fetal bovine serum at 37° C., 5% CO2 for 48 h. Medium was replaced by serum-free medium and cells were incubated at 37° C., 5% CO2 for 8 h. Compound to be tested in 5% DMSO or 5% DMSO and 50 μg/ml of chicken collagen II were added and cells were incubated at 37° C., 5% CO2 for 16 h
Cells were rinsed with ice-cold PBS, lysed with lysis buffer (M-PER Thermo #78501) for 30 min at room temperature and centrifuged for 1 min at 1000 RPM. In parallel, White High binding 384 well plates (Corning) were coated with mouse anti-human DDR2 capture antibody (R&D Systems kit DuoSet IC Human phospho-DDR2 ELISA), overnight at RT.
An aliquot of cell lysate was transferred to the coated plates and incubated for 2 h at RT. Plates were washed and mouse anti-phospho-tyrosine detection antibody (R&D Systems kit DuoSet IC Human phospho-DDR2 ELISA) conjugated to horse radish peroxidase (HRP) was added for 2 h at RT. Plates were washed and chemiluminescent substrate for HRP (Thermo) was added for 15 min at RT. Luminescence was measured on a luminometer.

Row | IC50 [nM] | Compound
1 | 5.9 | Cn1cc(C(F)(F)F)cc(NC(=O)NCc2ccc(Oc3ccnc4c3CNC(=O)N4)cc2)c1=O [compound 5]

same assay, conditions: cellular phospho-DDR2; read-out: IC50 [p-DDR2]

Row | IC50 [nM] | Compound
2 | 175 | CNC(=O)c1cc(Oc2ccc(CNC(=O)Nc3cc(Cl)cc(Cl)c3)cc2)ccn1 [compound 31]
3 | 64 | CNC(=O)c1cc(Oc2ccc(CNC(=O)Nc3ccc(OC)c(Cl)c3)cc2)ccn1 [compound 39, 4-{4-[3-(3-Chloro-4-methoxy-phenyl)-ureidomethyl]-phenoxy}-pyridine-2-carboxylic acid methylamide]
4 | 230 | CNC(=O)c1cc(Oc2ccc(CNC(=O)Nc3cc(Cl)ccc3C)cc2)ccn1 [compound 42, 4-{4-[3-(5-Chloro-2-methyl-phenyl)-ureidomethyl]-phenoxy}-pyridine-2-carboxylic acid methylamide]
5 | 175 | CNC(=O)c1cc(Oc2ccc(CNC(=O)Nc3ccc(Cl)c(C)c3)cc2)ccn1 [compound 74, 4-{4-[3-(4-Chloro-3-methyl-phenyl)-ureidomethyl]-phenoxy}-pyridine-2-carboxylic acid methylamide]
6 | 390 | CNC(=O)c1cc(Oc2ccc(CNC(=O)Nc3cccc(S(C)(=O)=O)c3)cc2)ccn1 [compound 135, 4-{4-[3-(3-Methanesulfonyl-phenyl)-ureidomethyl]-phenoxy}-pyridine-2-carboxylic acid methylamide]
7 | 1250 | CNC(=O)c1cc(Oc2ccc(CNC(=O)Nc3cccc(S(C)(=O)=O)c3)cc2C)ccn1 [compound 154, 4-{4-[3-(3-Methanesulfonyl-phenyl)-ureidomethyl]-2-methyl-phenoxy}-pyridine-2-carboxylic acid methylamide]
8 | 500 | CNC(=O)c1cc(Oc2ccc(CNC(=O)Nc3cccc(S(N)(=O)=O)c3)cc2)ccn1 [compound 157, 4-{4-[3-(3-Sulfamoyl-phenyl)-ureidomethyl]-phenoxy}-pyridine-2-carboxylic acid methylamide]
9 | 100000 | CNC(=O)c1cc(Oc2ccc(CNC(=O)Nc3cccc(S(=O)(=O)NC(C)C)c3)cc2)ccn1 [compound 158, 4-{4-[3-(3-Isopropylsulfamoyl-phenyl)-ureidomethyl]-phenoxy}-pyridine-2-carboxylic acid methylamide]
10 | 1500 | CNC(=O)c1cc(Oc2ccc(CNC(=O)Nc3cccc(NS(C)(=O)=O)c3)cc2C)ccn1 [compound 167, 4-{4-[3-(3-Methanesulfonylamino-phenyl)-ureidomethyl]-2-methyl-phenoxy}-pyridine-2-carboxylic acid methylamide]
11 | 330 | CNC(=O)c1cc(Oc2ccc(CNC(=O)Nc3cc(C)c(Cl)cc3NC(C)=O)cc2C)ccn1 [compound 186, 4-{4-[3-(2-Acetylamino-4-chloro-5-methyl-phenyl)-ureidomethyl]-2-methyl-phenoxy}-pyridine-2-carboxylic acid methylamide]
12 | 17600 | CNC(=O)c1cc(Oc2ccc(CNC(=O)Nc3ccc(C)cc3CO)cc2C)ccn1 [compound 196, 4-{4-[3-(2-Hydroxymethyl-4-methyl-phenyl)-ureidomethyl]-2-methyl-phenoxy}-pyridine-2-carboxylic acid methylamide]

More lines, now with the values behind:

Row | Compound | IC50 [nM]
13 | CNC(=O)c1cc(Oc2ccc(CNC(=O)Nc3ccc(Cl)c(Cl)c3)cc2)ccn1 [compound 3] | 195
14 | CNC(=O)c1cc(Oc2ccc(CNC(=O)Nc3ccc(Cl)cc3Cl)cc2)ccn1 [compound 8] | 255
15 | CNC(=O)c1cc(Oc2ccc(CNC(=O)Nc3ccc(F)cc3)cc2)ccn1 [compound 12] | 775
16 | CNC(=O)c1cc(Oc2ccc(CNC(=O)Nc3cc(Cl)c(Cl)cc3Cl)cc2)ccn1 [compound 23] | 100
17 | CNC(=O)c1cc(Oc2ccc(C(C)NC(=O)Nc3cc(Cl)c(Cl)cc3Cl)cc2)ccn1 (stereo not drawn) [compound 70, 4-(4-{1-[3-(2,4,5-Trichloro-phenyl)-ureido]-ethyl}-phenoxy)-pyridine-2-carboxylic acid methylamide] | 735
18 | CNC(=O)c1cc(Oc2ccc(C(C)NC(=O)Nc3ccc(Cl)c(Cl)c3)cc2)ccn1 (stereo not drawn) [compound 71, 4-(4-{1-[3-(3,4-Dichloro-phenyl)-ureido]-ethyl}-phenoxy)-pyridine-2-carboxylic acid methylamide] | 1800
19 | CNC(=O)c1cc(Oc2ccc(C(C)NC(=O)Nc3ccc(C)c(Cl)c3)cc2)ccn1 (stereo not drawn) [compound 73, 4-(4-{1-[3-(3-Chloro-4-methyl-phenyl)-ureido]-ethyl}-phenoxy)-pyridine-2-carboxylic acid methylamide] | 1750
20 | CNC(=O)c1cc(Oc2ccc(CNC(=O)Nc3ccc4nsnc4c3)cc2)ccn1 [compound 76, 4-{4-[(3-Benzo[1,2,5]thiadiazol-5-yl-ureido)-methyl]-phenoxy}-pyridine-2-carboxylic acid methylamide] | 670
21 | CNC(=O)c1cc(Oc2ccc(CNC(=O)Nc3cc(OC)c(OC)c(OC)c3)cc2)ccn1 [compound 80, 4-{4-[3-(3,4,5-Trimethoxy-phenyl)-ureidomethyl]-phenoxy}-pyridine-2-carboxylic acid methylamide] | 750
22 | O=C(NCc1ccc(Oc2ccnc(C(=O)O)c2)cc1)Nc1ccc(Cl)c(C(F)(F)F)c1 [compound 99, 4-{4-[3-(4-Chloro-3-trifluoromethyl-phenyl)-ureidomethyl]-phenoxy}-pyridine-2-carboxylic acid] | 2850
23 | CNC(=O)c1cc(Oc2ccc(CNC(=O)Nc3cc(C(F)(F)F)ccc3N3CCNCC3)cc2)ccn1 [compound 122, 4-{4-[3-(2-Piperazin-1-yl-5-trifluoromethyl-phenyl)-ureidomethyl]-phenoxy}-pyridine-2-carboxylic acid methylamide] | 135
24 | NCCNC(=O)c1cc(Oc2ccc(CNC(=O)Nc3ccc(Cl)c(C(F)(F)F)c3)cc2)ccn1 [compound 148, 4-{4-[3-(4-Chloro-3-trifluoromethyl-phenyl)-ureidomethyl]-phenoxy}-pyridine-2-carboxylic acid (2-amino-ethyl)-amide] | 785
25 | CNCCNC(=O)c1cc(Oc2ccc(CNC(=O)Nc3ccc(Cl)c(C(F)(F)F)c3)cc2)ccn1 [compound 149, 4-{4-[3-(4-Chloro-3-trifluoromethyl-phenyl)-ureidomethyl]-phenoxy}-pyridine-2-carboxylic acid (2-methylamino-ethyl)-amide] | 925
26 | CNC(=O)c1cc(Oc2ccc(CNC(=O)Nc3cc(C)c(Cl)cc3N(C)CCN(C)C)cc2)ccn1 [compound 162, 4-[4-(3-{4-Chloro-2-[(2-dimethylamino-ethyl)-methyl-amino]-5-methyl-phenyl}-ureidomethyl)-phenoxy]-pyridine-2-carboxylic acid methylamide] | 1600
27 | CNC(=O)c1cc(Oc2ccc(CNC(=O)Nc3cc(C)c(Cl)cc3N(C)CCN(C)C)cc2C)ccn1 [compound 164, 4-[4-(3-{4-Chloro-2-[(2-dimethylamino-ethyl)-methyl-amino]-5-methyl-phenyl}-ureidomethyl)-2-methyl-phenoxy]-pyridine-2-carboxylic acid methylamide] | 300
28 | CNC(=O)c1cc(Oc2ccc(CNC(=O)Nc3cc(C(F)(F)F)ccc3CCN)cc2)ccn1 [compound 175, 4-(4-{3-[2-(2-Amino-ethyl)-5-trifluoromethyl-phenyl]-ureidomethyl}-phenoxy)-pyridine-2-carboxylic acid methylamide] | 1300
29 | CNC(=O)c1cc(Oc2ccc(CNC(=O)Nc3cc(C(F)(F)F)ccc3N3CCNCC3)cc2C)ccn1 [compound 184, 4-{2-Methyl-4-[3-(2-piperazin-1-yl-5-trifluoromethyl-phenyl)-ureidomethyl]-phenoxy}-pyridine-2-carboxylic acid methylamide] | 76
30 | CNC(=O)c1cc(Oc2ccc(CNC(=O)Nc3cc(C(F)(F)F)ccc3CN3CCNCC3)cc2)ccn1 [compound 192, 4-{4-[3-(2-Piperazin-1-ylmethyl-5-trifluoromethyl-phenyl)-ureidomethyl]-phenoxy}-pyridine-2-carboxylic acid methylamide] | 1150
